Patent publication US4532327A, “Sesbanimide and the use thereof in treating leukemic tumors” (priority 1983, dated 1985)
Like-named read-outs stand apart in the source and are kept apart here.

What was measured:
KB Cell Culture = type: cell-based; settings: Example 1 fractions, active if ED50 ≤30 μg./ml.
Experimental: Chemotherapeutic Activity. The chemotherapeutic activities of the fractions obtained in the isolation procedure of Example 1 were determined in part by a KB Cell Culture Screen in accordance with the National Cancer Institute Protocol 1.600 [Geran et al., Cancer Chemother, Rep., Part 3, 3(2): 17 (1972)]. […] Such a dose is referred to as ED50 and activity is indicated for ED50 levels of ≤30 μg./ml.

[1] = test system: lymphocytic leukemia cells of the strain P388 (PS tumors); assay: lymphocytic leukemia P388 (PS tumors) implanted in mice (NCI Protocol 1.200); type: in vivo, mice (CDF1); settings: active if ≥125%
Experimental: As previously mentioned, the fractionation of Example 1 was also guided by assaying the effectiveness of the various fractions against lymphocytic leukemia cells of the strain P388 (PS tumors) implanted in mice. These assays were made according to the National Cancer Institute Protocol 1.200 described in Geran et al., supra, page 9. Starting 24 hr. after the tumor implantation, previously determined dosages of each fraction were injected intraperitoneally once a day for 9 days. Survival time of treated leukemic mice is compared to that of untreated leukemic mice (T/C×100). A T/C value of 100% indicated no activity. A T/C value greater than 100% means that the treated mice are surviving longer than the control mice. A fraction giving a T/C value greater than 125% is indicative of activity as defined by the NCI Protocols, above. Activities of the fractions comprising the pure or substantially pure sesbanimide isolates as reported in Table II establish the utility of the compounds as antileukemic agents.
(§1) ^1 All hosts were type CDF1 mice. Six replicate mice were tested
(§2) ^2 The doses are reported as micrograms per kilogram of host body
(§3) weight per injection. The injection vehicle in all cases was water.
(§4) ^3 T/C = mean survival time of test animals/mean survival time of
(§5) control animals; 125% or above considered active.

lymphoid leukemia L1210 = lymphoid leukemia L1210 in mice (NCI Protocol 1.100); type: in vivo; settings: female CDF1 mice, active if ≥125%
Experimental: This assay was conducted in accordance with the NCI Protocol 1.100 described in Geran et al., supra, page 7. Starting 24 hr. after the tumor implantation, predetermined doses of the compound were injected intraperitoneally once a day for 9 days.
as §1, §2, §3, §4, §5

KB cell = settings: attributed in U.S. Pat. No. 4,200,639 (disclaimed); cited from earlier work
[2] = test system: lymphocytic leukemia P388 (PS); settings: attributed in U.S. Pat. No. 4,200,639 (disclaimed); cited from earlier work

Question: Which results are given for `C=C1COC(O)(C2OCOC(C3CC(=O)NC(=O)C3)C2O)C1C` (stereo not drawn) [Sesbanimide A]?
Answer: ED50 (dose that inhibits growth to 50% of control growth by 3 days after drug addition) (KB Cell Culture; listed as K443, 4320 min): 0.0077 µg/mL; T/C ([1]; female CDF1 mice, 2.00 μg./kg./inj. i.p. once a day for 9 days): 119%; T/C ([1]; female CDF1 mice, 4.00 μg./kg./inj. i.p. once a day for 9 days): 119%; T/C ([1]; female CDF1 mice, 8.00 μg./kg./inj. i.p. once a day for 9 days): 140%; T/C ([1]; female CDF1 mice, 16.00 μg./kg./inj. i.p. once a day for 9 days): 149%; T/C ([1]; female CDF1 mice, 32.00 μg./kg./inj. i.p. once a day for 9 days): 181%; T/C (lymphoid leukemia L1210; 16.00 μg./kg./inj. i.p. once a day for 9 days): 116%; T/C (lymphoid leukemia L1210; 32.00 μg./kg./inj. i.p. once a day for 9 days): 135%; T/C (lymphoid leukemia L1210; 64.00 μg./kg./inj. i.p. once a day for 9 days): toxic

Question: What does the source list for `C=C1COC(O)(C2OCOC(C3CC(=O)NC(=O)C3)C2O)C1C` (stereo not drawn) [Sesbanimide B]?
Answer: ED50 (dose that inhibits growth to 50% of control growth by 3 days after drug addition) (KB Cell Culture; listed as K442, 4320 min): 0.068 µg/mL; T/C ([1]; male CDF1 mice, 1.87 μg./kg./inj. i.p. once a day for 9 days): 157%; T/C ([1]; male CDF1 mice, 3.75 μg./kg./inj. i.p. once a day for 9 days): 161%; T/C ([1]; male CDF1 mice, 7.50 μg./kg./inj. i.p. once a day for 9 days): toxic

Question: For `O=C1NC(=O)[C@@]2(CC[C@@H](O)C2)c2ccncc21` [sesbanine], which “apparent activity in the KB cell screen” value (KB cell) is on record?
Answer: result of a heretofore unidentified impurity

Question: What about the “apparent activity in the PS tumor system” value [2] of the same molecule?
Answer: result of a heretofore unidentified impurity
